Test [1] is described as follows: Inhibition of recombinant N-terminal deca-His/SUMO tagged RTA (1 to 267 residues) (unknown origin) expressed in Escherichia coli BL21 (DE3) mediated ribosome depurination activity assessed as maximal inhibition of cellular ribosomal RNA depurination preincubated with compound for 5 mins followed by addition of rat liver ribosomes and measured after 5 mins by qRT-PCR analysis relative to control. It is filed as subcellular. As to conditions: time 10.0 min.

Test [2] is described as follows: Displacement of BODIPY TMR-X-labeled P11 peptide from recombinant N-terminal deca-His/SUMO tagged RTA (1 to 267 residues) (unknown origin) expressed in Escherichia coli BL21 (DE3) incubated for 30 mins by competition binding based fluorescence polarization assay.
Test [3] is described as follows: Inhibition of recombinant N-terminal deca-His/SUMO tagged RTA (1 to 267 residues) (unknown origin) expressed in Escherichia coli BL21 (DE3) mediated ribosome depurination activity assessed as reduction in ribosomal RNA depurination preincubated with compound for 5 mins followed by addition of rat liver ribosomes and measured after 5 mins by qRT-PCR analysis. Type of test: subcellular.

A short description of test [4]: Displacement of BODIPY TMR-X-labeled P11 peptide from recombinant N-terminal deca-His/SUMO tagged RTA (1 to 267 residues) (unknown origin) expressed in Escherichia coli BL21 (DE3) assessed as inhibition constant incubated for 30 mins by competition binding based fluorescence polarization assay.
Test [5] in a line: cells. Type of test: cell-based. As to conditions: Vero, 2 h.
The nature of test [6]: cells. Type of test: cell-based. As to conditions: A549, 2 h.
Test [7] is described as follows: Inhibition of STX2A1 (unknown origin) mediated ribosomal depurination activity assessed as reduction in ribosomal RNA depurination preincubated with compound for 5 mins followed by addition of rat liver ribosomes and measured after 5 mins by qRT-PCR analysis. It is filed as subcellular, Ribosome.

The source made the active and inactive calls. The rule behind the calls is not given here.

Regarding `O=C(O)c1cc2c(s1)-c1ccc(F)cc1CC2`, in test [1], the Imax is 104%. Also, the values for the IC50 in test [2] and in test [3] were 17 µM and 32 µM, respectively.

For `Cc1cccc(C)c1-c1ccc(C(=O)O)s1`, in test [1], the Imax worked out at 102%. The IC50 in test [2] was 31 µM; in test [3], 45 µM.

On to H-RGWGHPSGYS-OH, for which the outcome in test [2] was inactive.

Turning to `O=C(O)c1cc2c(s1)-c1ccccc1CC2`, the Imax in test [1] was 100%.

On to H-SDDDMGFGLFD-OH, for which the Ki in test [4] turned out to be 1 µM. Further, the IC50 amounted to 4 µM in test [2] and 31 µM in test [3].

`NC(=O)c1cccc2c1-c1ccccc1C2=O`: the result in test [2] was inactive.

For the compound `O=C(O)c1cc2c(s1)-c1cc(Cl)ccc1SC2`, the Ki in test [4] came out at 15 µM. For the same compound, the IC50 in test [2] was 59 µM.

On to `CC1(C)Cc2cc(C(=O)O)sc2-c2ccccc21`, for which the Imax in test [1] was 112%. In addition, the EC50 was determined as 29 µM in test [5] and 92 µM in test [6]. In addition, the IC50 in test [3] was 23 µM; in test [7] it was 83 µM.

For the compound `O=C(O)c1ccc(-c2ccccc2)s1`, the Ki in test [4] stood at 58 µM. The values for the IC50 in test [2] and in test [3] were 224 µM and 408 µM, respectively.

Values taken from ChEMBL document CHEMBL5550091 (2024).
